Results reported in ChEMBL document CHEMBL5518170, “Dual target PARP1/EZH2 inhibitors inducing excessive autophagy and producing synthetic lethality for triple-negative breast cancer therapy” (Eur J Med Chem, 2024).

Columns and labels:
[1] = test system: MCF-10A; assay: cells; conditions: Homo sapiens, 72 h
Description: Cytotoxicity against human MCF-10A cells incubated for 72 hrs by MTT assay

[2] = test system: BT-549; assay: cells; conditions: Homo sapiens, BT-549, 72 h
Description: Cytotoxicity against human BT-549 cells incubated for 72 hrs by MTT assay

[3] = test system: MDA-MB-231; assay: cells; conditions: Homo sapiens, MDA-MB-231, 72 h
Description: Cytotoxicity against human MDA-MB-231 cells incubated for 72 hrs by MTT assay

[4] = test system: MDA-MB-231; assay: cells; conditions: Homo sapiens, MDA-MB-231, 72 h; remark: listed apart in the source
[5] = test system: MDA-MB-231; assay: Synergistic antitumor activity against human MDA-MB-231 cells xenografted in BALB/c mouse assessed as tumor growth inhibition at 50 mg/kg,ip administrated in presence of Niraparib for 21 consecutive days; assay type: functional; conditions: read-out: TGI
[6] = test system: MCF-10A; assay: cells; conditions: Homo sapiens, 72 h; remark: listed apart in the source
[7] = test system: BT-549; assay: cells; conditions: Homo sapiens, BT-549, 72 h; remark: listed apart in the source

Row | SMILES | IC50 [2] [µM] | IC50 [3] [µM] | IC50 [4] [µM] | IC50 [7] [µM] | IC50 [1] [µM] | inhibition in vivo at 50 mg/kg [5] [%] | IC50 [6] [µM]
1 | CCNc1cc(-c2ccc(CC(=O)N3CCC(c4nc5c(C(N)=O)cccc5[nH]4)CC3)cc2)cc(C(=O)NCc2c(C)cc(C)[nH]c2=O)c1C | > 40 | > 40 |  |  | > 40 |  | 
2 | CCNc1cc(-c2ccc(CC(=O)NCCc3nc4c(C(N)=O)cccc4[nH]3)cc2)cc(C(=O)NCc2c(C)cc(C)[nH]c2=O)c1C | 31.5 | > 40 |  |  | > 40 |  | 
3 | CCNc1cc(-c2ccc(CC(=O)NCc3nc4c(C(N)=O)cccc4[nH]3)cc2)cc(C(=O)NCc2c(C)cc(C)[nH]c2=O)c1C | 21.8 | > 40 |  |  | > 40 |  | 
4 | CCNc1cc(-c2ccc(CC(=O)NCCCCc3nc4c(C(N)=O)cccc4[nH]3)cc2)cc(C(=O)NCc2c(C)cc(C)[nH]c2=O)c1C | > 40 | > 40 |  |  | > 40 |  | 
5 | CCNc1cc(-c2ccc(CC(=O)N3CC(c4nc5c(C(N)=O)cccc5[nH]4)C3)cc2)cc(C(=O)NCc2c(C)cc(C)[nH]c2=O)c1C | > 40 | > 40 |  |  | > 40 |  | 
6 | CCNc1cc(-c2ccc(CC(=O)N3CC[C@@H](c4nc5c(C(N)=O)cccc5[nH]4)C3)cc2)cc(C(=O)NCc2c(C)cc(C)[nH]c2=O)c1C | 22.6 | > 40 |  |  | > 40 |  | 

More lines, main results first:

Row | IC50 [2] [µM] | IC50 [3] [µM] | IC50 [4] [µM] | IC50 [7] [µM] | SMILES | IC50 [1] [µM] | inhibition in vivo at 50 mg/kg [5] [%] | IC50 [6] [µM]
7 | > 40 | > 40 |  |  | CCNc1cc(-c2ccc(CC(=O)NCCCCCc3nc4c(C(N)=O)cccc4[nH]3)cc2)cc(C(=O)NCc2c(C)cc(C)[nH]c2=O)c1C | > 40 |  | 
8 | 23.5 | 33.7 |  |  | CCNc1cc(-c2ccc(CC(=O)N3CCC[C@H](c4nc5c(C(N)=O)cccc5[nH]4)C3)cc2)cc(C(=O)NCc2c(C)cc(C)[nH]c2=O)c1C | > 40 |  | 
9 | 37.2 | > 40 |  |  | CCNc1cc(-c2ccc(CC(=O)NCCCc3nc4c(C(N)=O)cccc4[nH]3)cc2)cc(C(=O)NCc2c(C)cc(C)[nH]c2=O)c1C | > 40 |  | 
10 | > 40 | > 40 |  |  | CCNc1cc(-c2ccc(CC(=O)N3CCC(Cc4nc5c(C(N)=O)cccc5[nH]4)CC3)cc2)cc(C(=O)NCc2c(C)cc(C)[nH]c2=O)c1C | > 40 |  | 
11 | > 40 | > 40 |  |  | CCNc1cc(-c2ccc(CC(=O)Nc3ccc(-c4nc5c(C(N)=O)cccc5[nH]4)cc3)cc2)cc(C(=O)NCc2c(C)cc(C)[nH]c2=O)c1C | > 40 |  | 
12 | > 40 | > 40 |  |  | CCn1ccc2c(C(=O)NCc3c(C)cc(C)[nH]c3=O)cc(-c3ccc(-c4nc5c(C(N)=O)cccc5[nH]4)cc3)cc21 | > 40 |  | 
13 | 19.2 | 13.2 | 6.32 | 8.28 | CC[C@H](C)n1cc(C)c2c(C(=O)NCc3c(C)cc(C)[nH]c3=O)cc(-c3ccc(N4CCNCC4)nc3)cc21 [GSK2816126] | > 40 | 57.2 | > 40
14 | 35.2 | 35.8 |  |  | O=C(c1cc(Cc2n[nH]c(=O)c3ccccc23)ccc1F)N1CCN(C(=O)C2CC2)CC1 [OLAPARIB] | > 40 |  | 
